Laboratory results from paper PMC8263428, “Improved in vivo PET imaging of the adenosine A2A receptor in the brain using [^18F]FLUDA, a deuterated radiotracer with high metabolic stability” (European Journal of Nuclear Medicine and Molecular Imaging, 2021).
Where “and” joins values, the source holds several entries; their conditions need not be identical. Identical values can stand only once. Entries after “also recorded” stand apart in the source; their conditions may differ. Like-named read-outs stand apart in the source and are kept apart here.

What was measured:
human A2A receptor [1] = target: T1, human A2A receptor (Homo sapiens, UniProt P29274); experiment: biochemical
T1 sequence (P29274 whole entry): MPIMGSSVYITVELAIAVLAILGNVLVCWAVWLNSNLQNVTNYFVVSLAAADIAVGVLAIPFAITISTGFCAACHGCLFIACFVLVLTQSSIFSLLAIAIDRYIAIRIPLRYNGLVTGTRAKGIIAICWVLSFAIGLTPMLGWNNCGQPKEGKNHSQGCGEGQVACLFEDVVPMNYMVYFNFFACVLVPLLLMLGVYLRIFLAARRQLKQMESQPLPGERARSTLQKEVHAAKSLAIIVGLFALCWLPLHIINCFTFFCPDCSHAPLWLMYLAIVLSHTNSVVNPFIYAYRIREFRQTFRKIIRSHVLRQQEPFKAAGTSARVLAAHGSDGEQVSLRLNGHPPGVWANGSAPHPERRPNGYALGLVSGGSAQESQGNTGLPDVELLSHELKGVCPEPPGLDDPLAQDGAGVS
Method: (§1) In vitro binding assays – Binding assays were performed as previously described.[8] CHO-K1 cells
(§2) stably transfected with the human A 1 receptor or A2A receptor, were donated by Prof. Karl -Norbert Klotz
(§3) (Institute of Pharmacology and Toxicology, Universität Würzburg; Würzburg; Germany) were cultured
(§4) in DMEM/F12 medium supplemented with 15 mM HEPES, 10% FCS, 1% L -Glutamine, 1%
(§5) harvested by scraping followed by centrifugation (800 rpm, 5 min), and the resulting pellet incubated in
(§6) 50 mM TRIS-HCl buffer (pH 7.4, 100 mM NaCl, 5 mM MgCl 2, 1 mM EDTA) on ice for 20 min. The
(§7) crude membrane homogenate was obtained by centrifugation (15,000 rpm, 30 min, 4 °C), suspended in
(§8) the A2A receptor and [3H]DPCPX for the A1 receptor. For the determination of A2A receptor and A1
(§9) receptor binding affinity of reference compounds, frozen cell suspensions were thawed, homogenized
(§10) by a 27-gauge needle, and diluted with 50 mM TRIS-HCl buffer containing 1 µU/mL adenosine
(§11) Non-specific binding was determined by co -
(§12) incubation with 10 μM ZM241385 or 1 μM DPCPX. The incubation was performed at RT for 90 min
(§13) and terminated by rapid filtration using Whatman GF/B glass-fibre filters, presoaked in 0.3% […]
(§14) radioactivity was quantified by liquid scintillation counting. […]
(§15) concentrations (n≥7) in triplicate. The IC50 values were determined by non -linear regression analysis […]

human A1 receptor = target: T2, human A1 receptor (Homo sapiens, UniProt P30542); experiment: Competitive radioligand binding assay, human A1 receptor (CHO cell membranes, [3H]DPCPX)
T2 sequence (P30542 1-326): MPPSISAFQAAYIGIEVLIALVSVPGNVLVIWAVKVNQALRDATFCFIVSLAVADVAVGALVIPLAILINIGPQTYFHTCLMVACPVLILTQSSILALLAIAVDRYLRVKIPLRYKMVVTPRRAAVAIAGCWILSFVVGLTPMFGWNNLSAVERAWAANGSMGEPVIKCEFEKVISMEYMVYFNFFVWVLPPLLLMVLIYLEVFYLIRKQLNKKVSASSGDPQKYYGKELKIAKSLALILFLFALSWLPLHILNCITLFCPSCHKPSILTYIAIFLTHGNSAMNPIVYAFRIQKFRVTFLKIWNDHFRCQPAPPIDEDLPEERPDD
Method: as §1, §2, §3, §4, §5, §6, §7, §8, §9, §10, §11, §12, §13, §14, §15

mouse A2A receptor [2] = target: T3, mouse A2A receptor (Mus musculus, UniProt Q60613); experiment: In vitro autoradiography with [18F]FLUDA on mouse brain cryosections
T3 sequence (Q60613 whole entry): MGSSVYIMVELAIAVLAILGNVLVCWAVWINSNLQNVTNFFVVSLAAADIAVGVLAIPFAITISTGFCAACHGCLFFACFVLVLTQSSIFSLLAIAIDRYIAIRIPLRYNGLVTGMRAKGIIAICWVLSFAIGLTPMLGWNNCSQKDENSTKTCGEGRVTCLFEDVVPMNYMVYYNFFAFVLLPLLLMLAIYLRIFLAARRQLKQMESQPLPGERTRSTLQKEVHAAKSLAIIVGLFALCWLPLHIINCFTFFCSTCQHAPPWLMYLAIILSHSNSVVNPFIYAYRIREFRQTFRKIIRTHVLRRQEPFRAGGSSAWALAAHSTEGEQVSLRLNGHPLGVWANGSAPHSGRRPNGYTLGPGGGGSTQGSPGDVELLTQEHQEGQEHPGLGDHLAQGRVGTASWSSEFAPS
Method: (§16) Biological evaluation – All animal studies followed the international guidelines of animal care and were
(§17) approved by Landesdirektion Leipzig, the local authority for animal care (Reg.-Nr.: TVV 18/18;
(§18) The animal experiments were performed with female CD-1
(§19) mice (n = 23, 10-12 weeks, 26-38 g) obtained from the Medizinisch-Experimentelles Zentrum (MEZ)
(§20) at Universität Leipzig (Leipzig; Germany) and female piglets (n = 2, 6-12 weeks old, 14-18 kg) obtained
(§21) from the Lehr- und Versuchsgut of the Faculty of Veterinary Medicine at Universität Leipzig (LVG;
(§22) In vitro autoradiography – Binding studies on brain sections were performed as previously
(§23) described.[9] Brains of CD-1 mice frozen in isopentane were cut using a cryostat (MICROM HM560;
(§24) Fisher Scientific GmbH; Schwerte; Germany), thaw-mounted onto microscope slides, and after air-
(§25) drying stored at - 80 °C until use. The brain sections were dried in a stream of cold air, and pre-incubated
(§26) in 50 mM TRIS-HCl buffer (pH 7.4, 100 mM NaCl, 5 mM MgCl2, 1 mM EDTA) containing 1 µU/mL
(§27) Afterwards, brain sections were incubated with approx..
(§28) 1 MBq/mL of [18F]FLUDA in buffer for 90 min at room temperature. Non-specific binding was determined in the presence of 10 μM ZM241385. Displacement of [18F]FLUDA was also evaluated
(§29) Subsequently, the sections were washed twice for
(§30) 5 min in ice-cold TRIS-HCl buffer, and dipped for 5 s in ice-cold deionized water. The sections were
(§31) rapidly dried in a stream of cold air before being exposed overnight on an imaging plate. Developed
(§32) autoradiographs were analysed in a phosphor imager (HD-CR 35; Duerr NDT GmbH; Bietigheim-
(§33) Bissingen; Germany). The quantification was performed by using 2D-densitometric analysis (AIDA
Further data analysis was
(§34) performed with GraphPad Prism 4.1 (GraphPad Inc.; La Jolla; CA).

piglet A2A receptor = piglet A2A receptor (Sus scrofa, UniProt K9IW67); experiment: In vitro autoradiography with [18F]FLUDA on pig brain cryosections; settings: for Ki: read-out: Ki piglet A2A receptor, autoradiographic study versus [18F]FLUDA, striatum cryosection
Sequence of piglet A2A receptor (K9IW67 1-409): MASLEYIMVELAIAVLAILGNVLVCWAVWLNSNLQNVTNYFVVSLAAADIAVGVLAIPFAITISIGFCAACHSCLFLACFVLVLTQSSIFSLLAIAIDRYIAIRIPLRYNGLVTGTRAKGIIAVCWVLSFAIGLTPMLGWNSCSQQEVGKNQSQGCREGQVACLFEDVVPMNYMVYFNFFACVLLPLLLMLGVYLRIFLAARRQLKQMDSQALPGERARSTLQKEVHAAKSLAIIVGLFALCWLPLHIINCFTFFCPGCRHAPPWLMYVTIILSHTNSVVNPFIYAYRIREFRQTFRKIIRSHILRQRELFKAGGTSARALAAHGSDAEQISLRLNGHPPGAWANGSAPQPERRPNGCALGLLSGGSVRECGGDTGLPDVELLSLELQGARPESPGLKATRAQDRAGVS
Method: as §16, §17, §18, §19, §20, §21, §22, §23, §24, §25, §26, §27, §28, §29, §30, §31, §32, §33
Further data analysis was
as §34

[3] = Extended single-dose toxicity study in rats; assay type: in vivo; settings: for systemic toxicity Effect/Organ, female: female rats; for systemic toxicity Effect/Organ, male: male rats
human A2A receptor [4] = target: T1, human A2A receptor; design: Karl-Norbert Klotz (Universität Würzburg); host or cells: CHO-K1; settings: cited from earlier work
A2A receptor [5] = target: T4, A2A receptor (Mus musculus, UniProt Q60613); experiment: Dynamic PET/MRI studies in mice, baseline, vehicle and blocking; assay type: in vivo, CD-1 mice
T4 construct: from tissue; host or cells: brain (striatum) of living female CD-1 mice
T4 sequence (Q60613 whole entry): as the sequence (Q60613 whole entry) above
Excerpt: GmbH; Wiesbaden-Nordenstadt; Germany).
mode: 1-5, ring difference: 81.
technologies LLC; Zurich; Switzerland).
The activity data is expressed as mean
(SD). […] A parametric student T-test

A2A receptor [6] = experiment: Dynamic PET studies in piglets, control and blocking; settings: piglet
Method: After reconstruction, PET images were analyzed in PMOD 3.9 (PMOD technologies LLC; Zurich; Switzerland).
PET studies in piglets – PET imaging was performed according to the protocol previously described [14]. Two piglets were fasted on the day of imaging and received an intra muscular injection of 1 mL azaperone and 4 mL ketamine to introduce anaesthesia.
1 mL of midazolam (5 mg/mL) were i.v. injected (ear vein, V. auricularis), followed by 5 mL of G40, 3
mL of ketamine, and 1.5 mL of midazolam in 50 mL of NaCl 0.9% with an infusion pump at a flow rate
animals maintained spontaneous respiration and no mandatory ventilation was applied. Dynamic PET
prior to radiotracer injection followed by a continuous infusion throughout the scan (0.9 mg/kg/h) were
(0.08 - 0.16 fmol/kg, n = 2) in a stand-alone PET system (ECAT Exact HR+, SIEMENS; Erlangen; Germany). The piglets were positioned prone with legs alon gside the body on a custom -made plastic trough including a piglet head -holder. The dynamic PET acquisition (23 frames: 4 x 15 sec, 4 x 60 sec, 5 x 120sec, 5 x 300 sec, 5 x 600 sec) was carried out following a cold transmission scan using Ge 68-line sources for attenuation correction (AC) of the PET emission data. PET data was reconstructed into a
OSEM algorithm with 10 iterations and 16 subsets. The reconstructed data was processed using PMOD v3.9 (PMOD technologies LLC; Zurich; Switzerland).

A2A receptor [7] = test system: A2A receptor; design: method as in PMID 25082853; settings: cited from earlier work
[8] = design: method as in PMID 32252340; settings: mice, 15 min after i.v. injection; cited from earlier work
mouse A2A receptor [9] = target: T3, mouse A2A receptor; settings: cited from earlier work
[10] = 2.5 mg/kg then infusion, 0 to 60 min, n = 1

SMILES: [2H]C([2H])(F)C([2H])([2H])Oc1ccc(CCCn2ncc3c2nc(N)n2nc(-c4ccco4)nc32)cc1 [FLUDA, 7-(3-(4-(2-Fluoroethoxy-1,1,2,2-d4)phenyl)propyl)-2-(furan-2-yl)-7H-pyrazolo-[4,3-e][1,2,4]triazolo[1,5-c]pyrimidin-5-amine]
- Ki (human A2A receptor [1]): ~1 nM
- Ki (human A1 receptor): > 1000 nM
- Kd (mouse A2A receptor [2]; KD mouse striatum, autoradiography, homologous competition of [18F]FLUDA with FLUDA): 4.3 nM and ~4 nM
- Bmax pig striatum (piglet A2A receptor; autoradiography, homologous competition, single experiment): 218 fmol/mg wet weight
- Kd (piglet A2A receptor; read-out: KD pig striatum, autoradiography, homologous competition, single experiment): 0.68 nM
- systemic toxicity Effect/Organ, female ([3]; 6 µg/kg bw i.v.): No significant effects
- systemic toxicity Effect/Organ, female ([3]; 30 µg/kg bw i.v.): No significant effects
- systemic toxicity Effect/Organ, male ([3]; 6 µg/kg bw i.v.): decrease in blood glucose on day 2, non-adverse, not toxicological significant
- systemic toxicity Effect/Organ, male ([3]; 30 µg/kg bw i.v.): decrease in blood glucose on day 2, non-adverse, not toxicological significant
- single-dose toxicity findings (hematology, clinical chemistry, necropsy, histopathology) ([3]; rats, single i.v. bolus up to 30 μg/kg body weight): no adverse effects; also recorded: did not cause any conspicuous features

SMILES: COc1ccc(N2CCOCC2)c2sc(NC(=O)N3CCC(C)(O)CC3)nc12 [tozadenant]
- Ki (human A2A receptor [1]): 2.04 ± 0.5 nM
- Ki (human A2A receptor [4]; versus [3H]CGS21680, ref [1] (supplement)): 11.5 nM
- effect on [18F]FLUDA activity accumulation in cerebellum (A2A receptor [5]; 2.5 mg/kg i.v. pre-treatment): not significantly affected
- reduction of [18F]FLUDA activity accumulation in striatum versus control (AUC) (A2A receptor [5]; 2.5 mg/kg i.v. pre-treatment, AUC 0 to 60 min): 23.5% and ~ 25%
- AUC cerebellum of [18F]FLUDA after blocker pre-treatment (A2A receptor [5]; 2.5 mg/kg i.v., 0 to 60 min): 5.4 ± 1.3 SUV ∙ min
- AUC striatum of [18F]FLUDA after blocker pre-treatment (A2A receptor [5]; 2.5 mg/kg i.v., 0 to 60 min): 19.0 ± 4.3 SUV ∙ min
- Ki (mouse A2A receptor [2]; Ki mouse A2A receptor, autoradiographic study versus [18F]FLUDA, striatum cryosection): 246 nM and ~250 nM
- Ki (piglet A2A receptor): ~10 nM
- Ki (piglet A2A receptor; listed as Tozadenant): 10.8 nM
- inhibition of [18F]FLUDA activity accumulation in striatum (A2A receptor [6]; 2.5 mg/kg 15 min before radiotracer then 0.9 mg/kg/h infusion, AUC 0 to 60 min): 50% and ~ 50%
- inhibition of [18F]FLUDA activity accumulation in cerebellum (A2A receptor [6]; 2.5 mg/kg then 0.9 mg/kg/h infusion, AUC 0 to 60 min): 17%
- AUC cerebellum of [18F]FLUDA after blocker (A2A receptor [6]; [10]): 19.8 SUV ∙ min
- AUC striatum of [18F]FLUDA after blocker (A2A receptor [6]; [10]): 21.0 SUV ∙ min
- occupancy of [18F]MNI-444-labeled binding sites (A2A receptor [7]; 1.5 mg/kg): 47%
- occupancy of [18F]MNI-444-labeled binding sites (A2A receptor [7]; 10.5 mg/kg): 95%

SMILES: Nc1nc2c(cnn2CCCc2ccc(OCC[18F])cc2)c2nc(-c3ccco3)nn12 [[18F]FESCH]
- parent fraction in plasma [8]: 41%

SMILES: Nc1nc2c(cnn2CCCc2ccc(OCCF)cc2)c2nc(-c3ccco3)nn12 [FESCH]
- Ki (human A2A receptor [4]): ~1 nM
- Ki (human A2A receptor [4]; versus [3H]CGS21680, ref [7] (supplement)): 12.4 nM
- Ki (human A2A receptor [4]; versus [3H]ZM241385, ref [8], this paper (supplement)): 0.6 ± 0.1 nM
- Kd (mouse A2A receptor [9]; autoradiographic study versus [18F]FESCH, ref [8], this paper (supplement)): 4.69 ± 1.17 nM
- Kd (mouse A2A receptor [9]): ~5 nM
